Measurements as given in publication PMC12488629, “Insecticidal activity of monoamide compounds from Humulus scandens against Spodoptera frugiperda” (Frontiers in Plant Science, 2025).
Converted amounts (≈) assume the structure as drawn.

Experiments:
[1] = tested on: 4th instar S. frugiperda larva; assay: Dietary toxicity of compounds, artificial feed film method; assay type: in vivo, Spodoptera frugiperda; settings: for Insecticidal activity, dietary poisoning (in words): 200 µg/mL; for LC50: Spodoptera frugiperda, feed or water, Gastrotoxic activity (dietary toxicity), 72 hours, 4th instar larvae
Protocol: The dietary toxicity of the compounds against S. frugiperda was determined via the artificial feed film method ([Lu, 2022]). Take 1g of artificial feed and place it in a petri dish, then add 0.1 ml of the liquid medicine (acetone as the solvent and concentration of 200 μg/mL for all compounds) was added to form a uniform film on the surface of the feed. After allowing the feed to dry in a shaded area, one uniformly sized 4th instar S. frugiperda larva was introduced into each dish. Each treatment included 10 Petri dishes, and the experiment was repeated twice. Acetone was used as the solvent control, and a blank control was also used. Mortality was recorded at 24, 48, and 72 hours, and the corrected mortality rate was calculated.
(§1) Mortality(%)=(Mortality of treatment group-Mortality of control group)/(1-Mortality of control group)×100%
The compound concentrations used were 50, 100, 200, 400, and 800 μg/mL. The remaining procedures were the same as those described in section 2.6.1. After 72 hours, the number of dead insects was recorded. The experimental data were processed using Microsoft Excel and SPSS 20.0 software, with the inhibition rates converted into corresponding probability values. A toxicity regression equation was derived, and the LC50 value was calculated.

[2] = tested on: Acetylcholinesterase (AchE); assay: AchE activity in living S. frugiperda after immersion treatment; assay type: in vivo, Spodoptera frugiperda; settings: treatment at LC50 and double the LC50, immersion
Protocol: The compounds were prepared in solutions at the LC50 and double the LC50, and 4th-instar S. frugiperda larvae were treated using the immersion method. Ten larvae were treated per concentration, with five replicates, and acetone was used as the solvent control. The Acetylcholinesterase (AchE) activity was measured following the operating procedures of the AchE assay kit (Shenggong Biotech Co., Shanghai, China.).

[3] = tested on: 4th instar S. frugiperda larvae; assay: Contact toxicity of compounds, immersion method; assay type: in vivo, Spodoptera frugiperda; settings: for Insecticidal activity, contact toxicity (in words): 200 µg/mL; for LC50: Spodoptera frugiperda, Poisoning activity (contact toxicity, immersion), 72 hours, 4th instar larvae
Protocol: The contact toxicity of the compounds against S. frugiperda was determined via the immersion method ([Li et al., 2023]). The compounds were prepared in solutions with a concentration of 200 μg/mL using acetone as the solvent. Uniformly sized 4th instar S. frugiperda larvae were selected and immersed in the solutions for 3–4 seconds. Each treatment included 10 Petri dishes, with one larva per dish, and the experiment was repeated three times. Acetone was used as the solvent control, and a blank control was also used. The number of dead insects was recorded at 24, 48, and 72 hours, and the corrected mortality rate was calculated.
as §1
The compound concentrations were prepared as 50, 100, 200, 400, and 800 μg/mL, with the remaining procedures following those in section 2.6.2. The number of dead insects was recorded after 72 hours. The experimental data was processed using Microsoft Excel and SPSS 20.0 software, converting the inhibition rates into corresponding probability values to obtain the toxicity regression equation and calculate the LC50 value.

AchE from S. frugiperda = AchE from S. frugiperda (Spodoptera frugiperda, UniProt A0A9R0CUI4); assay: Kinetic study of compound inhibition on AchE; assay type: biochemical; settings: for Inhibition type on AchE: Lineweaver-Burk double reciprocal plots; for Reversibility of AchE inhibition: reaction rate vs enzyme concentration
Protocol: Subsequently, 1.5 mM acetylcholine (ACh) (50 µL) and 0.3 mM DTNB (50 µL) were added, and the time was immediately recorded. The OD values were accurately measured after 60 seconds at 412 nm using a microplate reader, and the reaction rate (ΔA/min) was calculated based on the change in OD value per minute.
The OD values were accurately measured after 60 seconds at 412 nm using a microplate reader, and the reaction rate (ΔA/min) was calculated based on the change in OD value per minute. […] The inhibition constant (Ki) of the compound was calculated by plotting the Dixon plot.

Sequence of AchE from S. frugiperda (A0A9R0CUI4 18-694): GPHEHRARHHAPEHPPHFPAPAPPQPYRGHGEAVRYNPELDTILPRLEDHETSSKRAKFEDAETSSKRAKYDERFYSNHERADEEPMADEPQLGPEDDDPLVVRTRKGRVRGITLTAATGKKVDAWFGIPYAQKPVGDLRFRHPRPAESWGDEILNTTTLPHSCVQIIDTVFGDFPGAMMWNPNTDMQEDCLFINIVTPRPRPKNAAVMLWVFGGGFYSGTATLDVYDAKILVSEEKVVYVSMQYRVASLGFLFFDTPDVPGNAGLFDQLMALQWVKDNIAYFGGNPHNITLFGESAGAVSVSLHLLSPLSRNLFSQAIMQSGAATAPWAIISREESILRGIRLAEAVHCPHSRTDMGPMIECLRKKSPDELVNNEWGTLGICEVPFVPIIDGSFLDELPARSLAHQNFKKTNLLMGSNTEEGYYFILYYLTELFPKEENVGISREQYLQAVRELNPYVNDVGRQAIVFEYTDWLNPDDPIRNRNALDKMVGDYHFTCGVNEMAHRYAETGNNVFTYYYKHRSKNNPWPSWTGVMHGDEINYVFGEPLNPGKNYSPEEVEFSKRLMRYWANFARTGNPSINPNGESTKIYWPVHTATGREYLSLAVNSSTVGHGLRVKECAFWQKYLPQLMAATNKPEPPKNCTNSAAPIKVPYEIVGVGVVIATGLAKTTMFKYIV

Row | SMILES | Insecticidal activity, dietary poisoning (in words) [1] | LC50 [1] | AchE activity of the test insects [2] | Insecticidal activity, contact toxicity (in words) [3] | LC50 [3] | Inhibition type on AchE (AchE from S. frugiperda) | Reversibility of AchE inhibition (AchE from S. frugiperda)
1 | O=C(/C=C/c1ccc(O)cc1)NCCc1ccc(O)cc1 [Compound 1, N-p-coumaroyl tyramine] | good insecticidal activity | 305 µg/mL (≈ 1080 µM) | significantly decreased | good insecticidal activity | 93 µg/mL (≈ 328 µM) | competitive inhibitors | reversible inhibitors
2 | COc1cc(/C=C/C(=O)NCCc2ccc(O)cc2)ccc1O [Compound 2, N-trans-feruloyl tyramine] | good insecticidal activity | 89.9 µg/mL (≈ 287 µM) | significantly decreased | good insecticidal activity | 48 µg/mL (≈ 153 µM) | competitive inhibitors | reversible inhibitors
